What was measured:
[1] = Dissociation constant, pKa1 of compound for protonation of the 4-oxo group in 0.1 M KCl incubated for 1 min by UV-pH titration based spectrophotometric analysis; type: physicochemical
[2] = Dissociation constant, pKa2 of compound for dissociation of the 3-hydroxyl group in 0.1 M KCl incubated for 1 min by UV-pH titration based spectrophotometric analysis; type: physicochemical
[3] = target: T1, Amine oxidase [flavin-containing] B (Homo sapiens, UniProt P27338); experiment: Inhibition of human recombinant MAO-B expressed in baculovirus infected BTI insect cells using kynuramine as substrate at 100 nM incubated for 10 mins followed by substrate addition by fluorimetric analysis relative to control
T1 sequence (P27338 whole entry): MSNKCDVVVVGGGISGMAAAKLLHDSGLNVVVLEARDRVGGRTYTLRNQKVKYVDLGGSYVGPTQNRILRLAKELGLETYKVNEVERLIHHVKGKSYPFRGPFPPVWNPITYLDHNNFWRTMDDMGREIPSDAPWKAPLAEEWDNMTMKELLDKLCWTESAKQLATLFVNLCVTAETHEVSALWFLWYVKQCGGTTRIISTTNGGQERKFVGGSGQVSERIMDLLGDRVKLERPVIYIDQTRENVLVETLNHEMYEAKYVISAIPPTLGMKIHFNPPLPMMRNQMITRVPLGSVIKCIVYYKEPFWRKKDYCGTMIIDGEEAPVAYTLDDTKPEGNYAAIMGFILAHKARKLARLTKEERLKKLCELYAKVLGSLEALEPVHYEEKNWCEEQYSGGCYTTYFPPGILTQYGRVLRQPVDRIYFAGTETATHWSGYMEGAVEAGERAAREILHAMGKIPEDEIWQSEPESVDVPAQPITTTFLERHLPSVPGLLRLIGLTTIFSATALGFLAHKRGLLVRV

[4] = Metal chelating activity assessed as iron chelation
[5] = Metal chelating activity assessed as Fe3+ complex formation by measuring stability constant for FeI in using pre Fe+3 complexed compound (FeCl3) in 0.1 M KCl :DMSO solution UV-pH titration based spectrophotometric analysis
[6] = Metal chelating activity assessed as Fe3+ complex formation by measuring stability constant for Fe(I)2 in using pre Fe+3 complexed compound (FeCl3) in 0.1 M KCl :DMSO solution UV-pH titration based spectrophotometric analysis
[7] = Metal chelating activity assessed as Fe3+ complex formation by measuring stability constant for Fe(I)3 in using pre Fe+3 complexed compound (FeCl3) in 0.1 M KCl :DMSO solution UV-pH titration based spectrophotometric analysis
[8] = target: T1, Amine oxidase [flavin-containing] B; experiment: Inhibition of human recombinant MAO-B expressed in baculovirus infected BTI insect cells using kynuramine as substrate incubated for 10 mins followed by substrate addition by fluorimetric analysis

Row | Compound | pKa at 1 min [1] | pKa at 1 min [2] | inhibition at 0.1 µM [3] | pFe3+ [4] | log(activity) [5] | log(activity) [6] | log(activity) [7] | IC50 [8]
1 | Cc1c(O)c(=O)ccn1CCNC(=O)c1cc2ccc(OCc3ccccc3)cc2oc1=O | 3.25 | 9.7 | 30.1% | 16.9 | 14.1 | 24.9 | 33.2 | –
2 | Cc1cccc(COc2ccc3cc(C(=O)NCCn4ccc(=O)c(O)c4C)c(=O)oc3c2)c1 | 3.27 | 9.72 | 44.6% | 18.8 | 14.2 | 24.4 | 35.2 | 144 nM
3 | Cc1c(O)c(=O)ccn1CCNC(=O)c1cc2ccc(OCc3cccc(F)c3)cc2oc1=O | 3.32 | 9.65 | 49.1% | 17.1 | 14.1 | 24.7 | 33.3 | 108 nM
4 | Cc1c(O)c(=O)ccn1CCNC(=O)c1cc2ccc(OCc3cc(F)ccc3F)cc2oc1=O | 3.2 | 9.74 | 49.1% | 17.2 | 14.1 | 24.9 | 33.6 | 115 nM
5 | O=C(NCCn1ccc(=O)c(O)c1)c1cc2ccccc2oc1=O | 3 | 8.74 | 46.1% | 18.2 | 12.9 | 23.4 | 31.8 | 195 nM
6 | Cc1c(O)c(=O)ccn1C [DEFERIPRONE] | 3.61 to 3.67 | 9.78 to 9.84 | – | 20.7 | 14.4 to 15.1 | 25.7 to 27.4 | 34.2 to 37.4 | –
7 | Cc1ccc2oc(=O)c(C(=O)NCCn3ccc(=O)c(O)c3C)cc2c1 | 3.33 | 9.67 | 34.8% | 17.9 | 14.1 | 25.4 | 34.1 | –
8 | Cc1c(O)c(=O)ccn1CCNC(=O)c1cc2ccc(OCc3ccc(C(C)C)cc3)cc2oc1=O | 3.18 | 9.79 | 45.7% | 19 | 14.6 | 25.6 | 35.6 | 117 nM
9 | Cc1c(O)c(=O)ccn1CCNC(=O)c1cc2cc(OCc3ccccc3)ccc2oc1=O | 3.25 | 9.32 | 47.7% | 16.9 | 13.7 | 24.3 | 32 | 100 nM
10 | C#CCOc1ccc2cc(C(=O)NCCn3ccc(=O)c(O)c3C)c(=O)oc2c1 | 3.32 | 9.68 | 20.7% | 17.9 | 14.2 | 25.5 | 34.1 | 143 nM
11 | Cc1c(O)c(=O)ccn1CCC(=O)Nc1cc2ccccc2oc1=O | 3.29 | 9.48 | 43.5% | 17.6 | 13.8 | 24.8 | 33.3 | 160 nM
12 | CCOc1ccc2cc(C(=O)NCCn3ccc(=O)c(O)c3C)c(=O)oc2c1 | 3.3 | 9.75 | 46.2% | 18.2 | 14.2 | 25.6 | 34.7 | 108 nM
13 | Cc1c(O)c(=O)ccn1CCNC(=O)c1cc2ccc(OCc3ccccc3[N+](=O)[O-])cc2oc1=O | 3.24 | 9.74 | 50.6% | 18.2 | 15.1 | 25.9 | 34.6 | 98.6 nM
14 | Cc1ccc2cc(C(=O)NCCn3ccc(=O)c(O)c3C)c(=O)oc2c1 | 3.32 | 9.75 | 44.3% | 17.8 | 14.2 | 25.4 | 34.3 | 163 nM
15 | Cc1c(O)c(=O)ccn1CCNC(=O)c1cc2ccc(O)cc2oc1=O | 2.75 | 9.92 | 29.5% | 17.2 | 13.8 | 25.2 | 34.2 | –
16 | COc1ccc2cc(C(=O)NCCn3cc(O)c(=O)cc3C)c(=O)oc2c1 | 3.34 | 9.07 | 35.5% | 18.5 | 13.9 | 24.5 | 33 | –
17 | CCCOc1ccc2cc(C(=O)NCCn3ccc(=O)c(O)c3C)c(=O)oc2c1 | 3.31 | 9.75 | 45.9% | 18.1 | 14.6 | 26 | 34.6 | 135 nM
18 | Cc1c(O)c(=O)ccn1CCNC(=O)c1cc2cccc(OCc3ccccc3)c2oc1=O | 3.28 | 9.58 | 46.5% | 17.2 | 14 | 25.4 | 32.9 | 131 nM
19 | Cc1c(O)c(=O)ccn1CCNC(=O)c1cc2ccccc2oc1=O | 3.22 | 9.59 | 46.9% | 17.9 | 14 | 25 | 33.9 | 173 nM
20 | Cc1c(O)c(=O)ccn1CCNC(=O)c1cc2ccc(OCc3cc(F)cc(F)c3)cc2oc1=O | 3.25 | 9.78 | 47.4% | 16.9 | 14.3 | 25 | 33.5 | 125 nM
21 | COc1ccc2cc(C(=O)NCCn3ccc(=O)c(O)c3)c(=O)oc2c1 | 3.07 | 8.74 | 31.3% | 18.3 | 12.9 | 23.4 | 31.9 | –
22 | COc1ccc(COc2ccc3cc(C(=O)NCCn4ccc(=O)c(O)c4C)c(=O)oc3c2)cc1 | 3.24 | 9.77 | 47.6% | 17 | 14.1 | 24.8 | 33.3 | 143 nM
23 | Cc1c(O)c(=O)ccn1CCNC(=O)c1cc2ccc(OCc3ccc(F)cc3)cc2oc1=O | 3.27 | 9.76 | 48.1% | 17 | 14.2 | 25.1 | 33.5 | 128 nM
24 | Cc1c(O)c(=O)ccn1CCNC(=O)c1cc2ccc(OCC3CCCCC3)cc2oc1=O | 3.29 | 9.76 | 44.6% | 18.1 | 14.3 | 25.1 | 34.7 | –
25 | COc1ccc2oc(=O)c(C(=O)NCCn3ccc(=O)c(O)c3C)cc2c1 | 3.27 | 9.58 | 38.5% | 17.1 | 14.2 | 25.3 | 32.8 | –
